Measurements published in patent publication US20240158385A1, “NOVEL COMPOUNDS” (Cerevance, Inc., priority 2021, published 2024).

The molecules below were run against T1, human KCNK13 (Homo sapiens, UniProt Q9HB14) (assay: KCNK13 antagonist activity, thallium (Tl+) flux FLIPR assay). Conditions: not given.
T1 construct: expressed in transfected cells
T1 sequence (Q9HB14 1-408): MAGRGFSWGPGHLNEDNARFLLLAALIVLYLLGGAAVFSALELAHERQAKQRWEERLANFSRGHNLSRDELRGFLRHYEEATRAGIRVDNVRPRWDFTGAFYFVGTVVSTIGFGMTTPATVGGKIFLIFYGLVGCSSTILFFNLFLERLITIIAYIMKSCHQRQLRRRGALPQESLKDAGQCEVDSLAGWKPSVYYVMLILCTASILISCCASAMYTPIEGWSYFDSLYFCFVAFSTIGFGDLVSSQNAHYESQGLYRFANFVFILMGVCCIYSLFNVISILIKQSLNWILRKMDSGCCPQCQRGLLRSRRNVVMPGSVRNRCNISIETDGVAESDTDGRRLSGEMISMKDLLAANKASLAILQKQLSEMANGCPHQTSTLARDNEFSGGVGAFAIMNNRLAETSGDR
Format: cell-based
In short: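 HEK 293 cells stably expressing human KCNK13 loaded with Tl+-sensitive dye for 1 h at room temperature. Compounds (10-point half-log curves) preincubated 15 min before thallium sulfate stimulus, fluorescence tracked by FLIPR. IC50 from ten-point curves, each point the mean of two wells.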

| Structure (SMILES) | IC50 |
| --- | --- |
| Nc1nonc1-c1nc2cccnc2n1Cc1ccc(Cl)nc1 [Example 23, 4-[3-[(6-chloropyridin-3-yl)methyl]imidazo[4,5-b]pyridin-2-yl]-1,2,5-oxadiazol-3-amine] | < 50 nM |

Same assay, conditions: HEK 293 cells stably expressing human KCNK13; Tl+ sensitive dye, FLIPR; compounds 15 minutes prior to thallium sulfate; 10 point half log curves from 10 PM; read-out: hKCNK13 IC50

| Structure (SMILES) | IC50 |
| --- | --- |
| Nc1nonc1-c1nc2ccc(F)cc2n1Cc1cncnc1 (single isomer, unassigned) [Example 4, 4-[6-fluoro-1-(pyrimidin-5-ylmethyl)benzimidazol-2-yl]-1,2,5-oxadiazol-3-amine] | < 50 nM |
| Cc1nonc1-c1nc2cccc(F)c2n1Cc1ccc(S(C)(=O)=O)nc1 (single isomer, unassigned) [Example 137, 3-(7-fluoro-1-((6-(methylsulfonyl)pyridin-3-yl)methyl)-benzimidazol-2-yl)-4-methyl-1,2,5-oxadiazole] | < 500 nM |
| CCc1nonc1-c1nc2ccccc2n1Cc1cccnc1 [Example 116, 3-ethyl-4-[1-(pyridin-3-ylmethyl)benzimidazol-2-yl]-1,2,5-oxadiazole] | < 1000 nM |
| COc1cc(Cn2c(-c3nonc3N)nc3ccccc32)ccn1 [Example 93, 4-[1-[(2-methoxypyridin-4-yl)methyl]benzimidazol-2-yl]-1,2,5-oxadiazol-3-amine] | < 50 nM |
| [2H]C([2H])(c1cccnc1)n1c(-c2nonc2C)nc2c(F)cccc21 (single isomer, unassigned) [Example 30, 3-[1-[dideuterio(pyridin-3-yl)methyl]-4-fluoro-benzimidazol-2-yl]-4-methyl-1,2,5-oxadiazole] | < 50 nM |
| N#Cc1ncc(Cn2c(-c3nonc3N)nc3cccnc32)cn1 [Example 11, 5-[[2-(4-amino-1,2,5-oxadiazol-3-yl)imidazo[4,5-b]pyridin-3-yl]methyl]pyrimidine-2-carbonitrile] | < 200 nM |
| Nc1nonc1-c1nc2cccnc2n1Cc1ccc(C(F)(F)F)nc1 [Example 19, 4-[3-[[6-(trifluoromethyl)pyridin-3-yl]methyl]imidazo[4,5-b]pyridin-2-yl]-1,2,5-oxadiazol-3-amine] | < 500 nM |
| CNS(=O)(=O)c1ccc(Cn2c(-c3nonc3C)nc3ccccc32)cn1 [Example 164, N-methyl-5-((2-(4-methyl-1,2,5-oxadiazol-3-yl)-benzimidazol-1-yl)methyl)pyridine-2-sulfonamide] | < 1000 nM |
| Cc1nsnc1-c1nc2cccc(F)c2n1Cc1cccnc1 (single isomer, unassigned) [Example 125, 3-[7-fluoro-1-(pyridin-3-ylmethyl)benzimidazol-2-yl]-4-methyl-1,2,5-thiadiazole] | < 50 nM |
| Nc1nonc1-c1nc2c(F)ccc(F)c2n1Cc1cccnn1 [Example 154, 4-(4,7-difluoro-1-(pyridazin-3-ylmethyl)-benzimidazol-2-yl)-1,2,5-oxadiazol-3-amine] | < 50 nM |
| Cc1nsnc1-c1nc2c(F)cccc2n1Cc1cccnc1 (single isomer, unassigned) [Example 124, 3-[4-fluoro-1-(pyridin-3-ylmethyl)benzimidazol-2-yl]-4-methyl-1,2,5-thiadiazole] | < 50 nM |
| N#Cc1nsnc1-c1nc2ccccc2n1Cc1cccnc1 [Example 99, 4-[1-(pyridin-3-ylmethyl)benzimidazol-2-yl]-1,2,5-thiadiazole-3-carbonitrile] | < 100 nM |
| Nc1nonc1-c1nc2cccc(F)c2n1Cc1ccncn1 (single isomer, unassigned) [Example 134, 4-(7-fluoro-1-(pyrimidin-4-ylmethyl)-benzimidazol-2-yl)-1,2,5-oxadiazol-3-amine] | < 50 nM |
| Cc1cc(Cn2c(-c3nonc3C)nc3ccccc32)ccn1 [Example 74, 3-methyl-4-[1-[(2-methylpyridin-4-yl)methyl]benzimidazol-2-yl]-1,2,5-oxadiazole] | < 500 nM |
| Cc1ocnc1-c1nc2ccccc2n1Cc1cccnc1 [Example 103, 5-methyl-4-[1-(pyridin-3-ylmethyl)benzimidazol-2-yl]oxazole] | < 200 nM |
| COc1ccc(Cn2c(-c3nonc3C)nc3cccnc32)cn1 [Example 16, 3-[3-[(6-methoxypyridin-3-yl)methyl]imidazo[4,5-b]pyridin-2-yl]-4-methyl-1,2,5-oxadiazole] | < 200 nM |
| CCOc1ccc(Cn2c(-c3nonc3C)nc3c(F)cccc32)cn1 [Example 48, 3-[1-[(6-ethoxypyridin-3-yl)methyl]-4-fluoro-benzimidazol-2-yl]-4-methyl-1,2,5-oxadiazole] | < 1000 nM |
| Nc1nonc1-c1nc2ccccc2n1Cc1cccnc1 [Example 90, 4-[1-(pyridin-3-ylmethyl)benzimidazol-2-yl]-1,2,5-oxadiazol-3-amine] | < 50 nM |
| Nc1nonc1-c1nc2cc(Br)ccc2n1Cc1cccnc1 [Example 33, 4-[5-bromo-1-(pyridin-3-ylmethyl)benzimidazol-2-yl]-1,2,5-oxadiazol-3-amine] | < 50 nM |

| Structure (SMILES) | IC50 |
| --- | --- |
| Cc1nonc1-c1nc2c(F)cccc2n1Cc1cnc(C#N)nc1 [Example 45, 5-[[4-fluoro-2-(4-methyl-1,2,5-oxadiazol-3-yl)benzimidazol-1-yl]methyl]pyrimidine-2-carbonitrile] | < 100 nM |
| Nc1nonc1-c1nc2c(F)cccc2n1Cc1cccnc1 (single isomer, unassigned) [Example 87, 4-[4-fluoro-1-(pyridin-3-ylmethyl)benzimidazol-2-yl]-1,2,5-oxadiazol-3-amine] | < 50 nM |
| N#Cc1ccc(Cn2c(-c3nonc3N)nc3c(F)cccc32)cn1 [Example 8, 5-[[2-(4-amino-1,2,5-oxadiazol-3-yl)-4-fluoro-benzimidazol-1-yl]methyl]pyridine-2-carbonitrile] | < 100 nM |
| Cc1nonc1-c1nc2ccc(F)c(F)c2n1Cc1cncnc1 [Example 7, 3-[6,7-difluoro-1-(pyrimidin-5-ylmethyl)benzimidazol-2-yl]-4-methyl-1,2,5-oxadiazole] | < 100 nM |
| Cc1ccc(Cn2c(-c3nonc3C)nc3ccccc32)cn1 [Example 63, 3-methyl-4-[1-[(6-methylpyridin-3-yl)methyl]benzimidazol-2-yl]-1,2,5-oxadiazole] | < 200 nM |
| Nc1nonc1-c1nc2c(F)cccc2n1Cc1ccnnc1 (single isomer, unassigned) [Example 133, 4-(4-fluoro-1-(pyridazin-4-ylmethyl)-benzimidazol-2-yl)-1,2,5-oxadiazol-3-amine] | < 100 nM |
| Nc1nonc1-c1nc2cc(F)cc(F)c2n1Cc1cccnn1 [Example 141, 4-(5,7-difluoro-1-(pyridazin-3-ylmethyl)-benzimidazol-2-yl)-1,2,5-oxadiazol-3-amine] | < 100 nM |
| Cc1nonc1-c1nc2cccc(F)c2n1Cc1ccc(Cl)nc1 [Example 38, 3-[1-[(6-chloropyridin-3-yl)methyl]-7-fluoro-benzimidazol-2-yl]-4-methyl-1,2,5-oxadiazole] | < 50 nM |
| Nc1nonc1-c1nc2ccccc2n1Cc1cccnc1C(F)(F)F [Example 109, 4-[1-[[2-(trifluoromethyl)pyridin-3-yl]methyl]benzimidazol-2-yl]-1,2,5-oxadiazol-3-amine] | < 500 nM |
| Cc1nonc1-c1nc2c(F)ccc(F)c2n1Cc1cccnn1 [Example 185, 3-(4,7-difluoro-1-(pyridazin-3-ylmethyl)-benzimidazol-2-yl)-4-methyl-1,2,5-oxadiazole] | < 50 nM |
| C[C@@H](c1cccnc1)n1c(-c2nonc2N)nc2cccc(F)c21 [Example 161, (S)-4-(7-fluoro-1-(1-(pyridin-3-yl)ethyl)-benzimidazol-2-yl)-1,2,5-oxadiazol-3-amine] | < 1000 nM |
| Cc1ccc(Cn2c(-c3nonc3N)nc3cccc(F)c32)nn1 (single isomer, unassigned) [Example 168, 4-(7-fluoro-1-((6-methylpyridazin-3-yl)methyl)-benzimidazol-2-yl)-1,2,5-oxadiazol-3-amine] | < 50 nM |
| Nc1nonc1-c1nc2ccccc2n1Cc1ccnnc1 [Example 107, 4-[1-(pyridazin-4-ylmethyl)benzimidazol-2-yl]-1,2,5-oxadiazol-3-amine] | < 200 nM |
| COc1ccc(Cn2c(-c3nonc3N)nc3cccc(F)c32)nn1 (single isomer, unassigned) [Example 152, 4-(7-fluoro-1-((6-methoxypyridazin-3-yl)methyl)-benzimidazol-2-yl)-1,2,5-oxadiazol-3-amine] | < 50 nM |
| Cc1nonc1-c1nc2cccc(F)c2n1Cc1ccc(C#N)nn1 [Example 46, 6-[[7-fluoro-2-(4-methyl-1,2,5-oxadiazol-3-yl)benzimidazol-1-yl]methyl]pyridazine-3-carbonitrile] | < 100 nM |
| Cc1nonc1-c1nc2ccccc2n1Cc1ccc(Cl)nc1 [Example 60, 3-[1-[(6-chloropyridin-3-yl)methyl]benzimidazol-2-yl]-4-methyl-1,2,5-oxadiazole] | < 100 nM |
| Cc1nonc1-c1nc2c(F)cccc2n1Cc1cccnc1 (single isomer, unassigned) [Example 123, 3-[4-fluoro-1-(pyridin-3-ylmethyl)benzimidazol-2-yl]-4-methyl-1,2,5-oxadiazole] | < 50 nM |
| Nc1nsnc1-c1nc2cccc(F)c2n1Cc1cccnn1 (single isomer, unassigned) [Example 156, 4-(7-fluoro-1-(pyridazin-3-ylmethyl)-benzimidazol-2-yl)-1,2,5-thiadiazol-3-amine] | < 50 nM |
